Data as given in patent publication US11603475B2, “Antifouling article” (I-Tech AB, priority 2017, dated 2023).

Experiments:
[1] = stirring
Description: This example investigated the solubility of SELEKTOPE® (I-Tech AB, Mölndal, Sweden) in 1,4-butandiol (Brenntag Nordic AB, Malmö, Sweden). Vials were prepared according to Table 1 and left with stirring.
Vial number 4 was prepared and left with stirring in a same way as vial numbers 1-3.

[2] = test system: barnacle cyprid larva; conditions: barnacles; cited from earlier work
[3] = test system: tube worms; conditions: in vivo; cited from earlier work
[4] = test system: algal growth; conditions: in vivo; cited from earlier work

- dissolution in vial number 1 ([1]; 97 mg SELEKTOPE in 1.007 g 1,4-butandiol, after 24 hours): all SELEKTOPE® had dissolved
- dissolution in vial number 2 ([1]; 206 mg SELEKTOPE in 1.012 g 1,4-butandiol, 48 hours after preparation): all SELEKTOPE® material had dissolved
- dissolution in vial number 4 ([1]; 247 mg SELEKTOPE in 1.009 g 1,4-butandiol, 24 hours after preparation (same at 48 hours)): a few non-dissolved grains remaining
- dissolution in vial number 3 ([1]; 303 mg SELEKTOPE in 1.024 g 1,4-butandiol, after about 2 hours (same after 24 and 48 hours)): still a lot of non-dissolved SELEKTOPE®
Structure (SMILES): Cc1cccc(C(C)c2c[nH]cn2)c1C (racemic) [Medetomidine, (±)-4,5-[1-(2,3-dimethylphenyl)ethyl)-1H-imidazole]
- concentrations that impede larval settlement [2]: 1 to 10 nM
- effect on other hard fouling, such as tube worms [3]: shown effect
- effect on algal growth [4]: no effect on algal growth
